{"source": "patent US9512090B2", "about": "“Tetrazolinone compound and use thereof” (Sumitomo Chemical Company, Limited, priority 2013, dated 2016)", "key": {"[1]": {"system": "cucumber powdery mildew fungus (Sphaerotheca fuliginea)", "test": "Test Example 6 and Comparative Test Example: cucumber powdery mildew control by foliar spray", "type": "in vivo", "details": "500 ppm spray on cucumber (SAGAMI HANJIRO); 8 days after inoculation"}, "[2]": {"system": "common house mosquito (Culex pipiens pallens)", "test": "Test Example 12: common house mosquito larvae mortality in treated water", "type": "in vivo", "details": "active ingredient 3.5 ppm in water; last instar larvae; after 8 days", "procedure": "A water dilution containing a surfactant prepared by adjusting so as to contain a predetermined concentration (500 ppm) of any one compound of the present compounds 20, 29, and 79 was used as a test chemical solution.\nThe above test chemical solution (0.7 mL) was added to 100 mL of deionized water to adjust the concentration of an active ingredient to 3.5 ppm. Twenty (20) heads of last instar larvae of common house mosquito (Culex pipiens pallens) were released in the solution and the number of dead insects was counted after 8 days.\nMortality was determined by the following equation. Mortality (%)=(number of dead insects/number of test insects)×100"}}}
{"molecule": "Cc1ccc(OCc2ccccc2-n2nnn(C)c2=O)cc1", "note": "[1-{2-(4-methylphenoxymethyl)phenyl}-4-methyl-1,4-dihydrotetrazol-5-one]", "values": [{"measurement": "area of lesion spots on the treated plant relative to that on an untreated plant", "setting": "[1]", "result": "≥ 70", "unit": "%"}]}
{"molecule": "Cc1cc(OCc2c(C)cccc2-n2nnn(C)c2=O)ccc1-c1ccccc1", "note": "[compound 29]", "values": [{"measurement": "mortality", "setting": "[2]", "result": 100, "unit": "%"}]}
{"molecule": "COc1ccccc1-c1ccc(OCc2c(OC)cccc2-n2nnn(C)c2=O)c(C)c1", "note": "[compound 20]", "values": [{"measurement": "mortality", "setting": "[2]", "result": 100, "unit": "%"}]}
{"molecule": "CCN(c1ccccc1)c1ccc(OCc2c(C)cccc2-n2nnn(C)c2=O)c(C)c1", "note": "[compound 79]", "values": [{"measurement": "mortality", "setting": "[2]", "result": 100, "unit": "%"}]}
